Each block holds one molecule with its values, some of them ahead of it.
Key:
[1] = molecular target: T1, C-C chemokine receptor type 2 (Homo sapiens, UniProt P41597); test: Displacement of [125I]MCP1 from CCR2 in human PBMCs
Target sequence in this assay (P41597 whole entry): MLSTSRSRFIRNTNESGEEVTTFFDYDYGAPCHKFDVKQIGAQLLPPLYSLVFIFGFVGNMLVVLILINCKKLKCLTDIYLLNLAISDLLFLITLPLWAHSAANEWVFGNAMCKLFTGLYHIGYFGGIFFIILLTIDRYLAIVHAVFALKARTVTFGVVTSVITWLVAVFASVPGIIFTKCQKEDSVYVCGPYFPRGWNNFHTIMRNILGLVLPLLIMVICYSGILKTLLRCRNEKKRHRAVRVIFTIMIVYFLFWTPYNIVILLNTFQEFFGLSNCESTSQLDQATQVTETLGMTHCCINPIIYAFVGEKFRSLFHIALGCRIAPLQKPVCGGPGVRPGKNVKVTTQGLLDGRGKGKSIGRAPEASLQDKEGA

[2] = molecular target: T1, C-C chemokine receptor type 2; test: Antagonist activity at CCR2 in human monocytes assessed as inhibition of MCP1-induced calcium influx by FLIPR; format: functional, cell-based
Target sequence in this assay (P41597 whole entry): as above

[3] = molecular target: T1, C-C chemokine receptor type 2; test: Displacement of [125I]MCP1 from CCR2 in human PBMCs at 1 uM
Target sequence in this assay (P41597 whole entry, looked up): as the sequence (P41597 whole entry) above

[4] = Antagonist activity at CCR2 in human PBMCs assessed as inhibition of MCP1-induced chemotaxis

Structure (SMILES): CSc1ccc(C(=O)NC2CCC(NC(=O)OCc3ccccc3)CC2NC(=O)CNC(=O)c2cc(C(F)(F)F)ccc2NC(=O)OC(C)(C)C)cc1 (racemic)
IC50 [1]: 600 nM

Structure (SMILES): CN(C)C1CCC(NC(=O)CNC(=O)c2cccc(C(F)(F)F)c2)C(NCc2ccc(Cl)cc2)C1 (racemic)
IC50 [1]: 16 nM | IC50 [2]: 7 nM

Structure (SMILES): CN(C)C1CCC(NC(=O)CNC(=O)c2cccc(C(F)(F)F)c2)C(NCc2ccc(Cl)c(Cl)c2)C1 (racemic)
IC50 [1]: 61.5 nM

Structure (SMILES): COc1ccc(CNC2CC(N(C)C)CCC2NC(=O)CNC(=O)c2cccc(C(F)(F)F)c2)cc1 (racemic)
IC50 [1]: 12.5 nM | IC50 [2]: 8 nM

Structure (SMILES): CN(C)C1CCC(NC(=O)CNC(=O)c2cccc(C(F)(F)F)c2)C(NCc2cccc(C(F)(F)F)c2)C1 (racemic)
IC50 [1]: 32.5 nM | IC50 [2]: 27 nM

Structure (SMILES): CC(=O)Nc1ccc(CNC2CC(N(C)C)CCC2NC(=O)CNC(=O)c2cccc(C(F)(F)F)c2)cc1 (racemic)
IC50 [1]: 7.7 nM

Structure (SMILES): CSc1ccc(CNC2CC(N(C)C)CCC2NC(=O)CNC(=O)c2cccc(C(F)(F)F)c2)cc1 (racemic)
IC50 [1]: 2.4 nM | IC50 [2]: 6 nM

Structure (SMILES): Cc1ccc(CNC2CC(N(C)C)CCC2NC(=O)CNC(=O)c2cccc(C(F)(F)F)c2)cc1 (racemic)
IC50 [1]: 9.9 nM | IC50 [2]: 5.5 nM

Structure (SMILES): CSc1ccc(C(=O)NC2CCNCC2NC(=O)CNC(=O)c2cc(C(F)(F)F)ccc2N)cc1 (racemic)
IC50 [4]: 109 nM

Structure (SMILES): CSc1ccc(C(=O)NC2CC(N)CCC2NC(=O)CNC(=O)c2cccc(C(F)(F)F)c2)cc1 (racemic)
IC50 [1]: 228 nM

Structure (SMILES): CSc1ccc(C(=O)NC2CCCCC2NC(=O)CNC(=O)c2cc(C(F)(F)F)ccc2N)cc1 (racemic)
IC50 [1]: 155 nM

Structure (SMILES): CC(C)c1ccc(CNC2CC(N(C)C)CCC2NC(=O)CNC(=O)c2cccc(C(F)(F)F)c2)cc1 (racemic)
IC50 [1]: 16.5 nM | IC50 [2]: 19 nM

Structure (SMILES): CN(C)C1CCC(NC(=O)CNC(=O)c2cccc(C(F)(F)F)c2)C(NCc2ccc3[nH]ccc3c2)C1 (racemic)
IC50 [1]: 3.1 nM | IC50 [2]: 8 nM

Structure (SMILES): CSc1ccc(C(=O)NC2CCC(N)CC2NC(=O)CNC(=O)c2cccc(C(F)(F)F)c2)cc1 (racemic)
Activity [3]: 13%

Structure (SMILES): CSc1ccc(C(=O)NC2CC(NC(=O)OCc3ccccc3)CCC2NC(=O)CNC(=O)c2cccc(C(F)(F)F)c2)cc1 (racemic; form 1)
Activity [3]: 14%

Structure (SMILES): CSc1ccc(C(=O)NC2CC(NC(=O)OCc3ccccc3)CCC2NC(=O)CNC(=O)c2cccc(C(F)(F)F)c2)cc1 (racemic; form 2)
IC50 [1]: 2.4 nM | IC50 [2]: 2 nM

Results, then the molecule that gave them:

IC50 [1]: 112 nM
Structure (SMILES): CNC(=O)NC1CCC(NC(=O)c2ccc(SC)cc2)C(NC(=O)CNC(=O)c2cc(C(F)(F)F)ccc2N)C1 (racemic)

IC50 [1]: 167 nM | Activity [3]: 28.1%
Structure (SMILES): CSc1ccc(C(=O)NC2CCC(N)CC2NC(=O)CNC(=O)c2cc(C(F)(F)F)ccc2N)cc1 (racemic)

IC50 [1]: 136 nM
Structure (SMILES): CSc1ccc(C(=O)NC2CCC(NC(C)C)CC2NC(=O)CNC(=O)c2cccc(C(F)(F)F)c2)cc1 (racemic)

IC50 [1]: 4.8 nM | IC50 [2]: 6 nM
Structure (SMILES): CSc1ccc(C(=O)NC2CC(N)CCC2NC(=O)CNC(=O)c2cc(C(F)(F)F)ccc2N)cc1 (racemic)

IC50 [1]: 1610 nM | Activity [3]: 0%
Structure (SMILES): CSc1ccc(C(=O)NC2CCC(NC(=O)OCc3ccccc3)CC2NC(=O)CNC(=O)c2cccc(C(F)(F)F)c2)cc1 (racemic)

IC50 [1]: 3.8 nM | IC50 [2]: 2 nM
Structure (SMILES): CSc1ccc(C(=O)NC2CCC(NC(C)C)CC2NC(=O)CNC(=O)c2cc(C(F)(F)F)ccc2N)cc1 (racemic)

Activity [3]: 31.4%
Structure (SMILES): CSc1ccc(C(=O)NC2CC(NC(C)C)CCC2NC(=O)CNC(=O)c2cccc(C(F)(F)F)c2)cc1 (racemic)

Activity [3]: 3.1%
Structure (SMILES): CSc1ccc(C(=O)NC2CCC(NC(=O)OCc3ccccc3)CC2NC(=O)CNC(=O)c2cc(C(F)(F)F)ccc2N)cc1 (racemic)

— ChEMBL document CHEMBL1143363, “Discovery of trisubstituted cyclohexanes as potent CC chemokine receptor 2 (CCR2) antagonists” (Bioorg Med Chem Lett, 2009)
